{"source": "ChEMBL document CHEMBL1909637", "about": "“Structure-activity relationship and enzyme kinetic studies on 4-aryl-1H-1,2,3-triazoles as indoleamine 2,3-dioxygenase (IDO) inhibitors” (Eur J Med Chem, 2011)", "key": {"[1]": {"biological_target": "T1, Indoleamine 2,3-dioxygenase 1 (Homo sapiens, UniProt P14902)", "test": "Inhibition of human recombinant indoleamine-2,3-dioxygenase expressed in Escherichia coli BL21 using L-tryptophan as substrate after 30 mins by microplate reader analysis"}, "[2]": {"biological_target": "T1, Indoleamine 2,3-dioxygenase 1", "test": "Reversal inhibition of human recombinant indoleamine-2,3-dioxygenase expressed in Escherichia coli BL21 using L-tryptophan as substrate by Dixon plot analysis"}, "T-cell [3]": {"tested_on": "T-cell", "test": "Induction of BALB/c mouse LLC-stimulated T cell proliferation after 4 days by WST-1 method", "assay_type": "functional, cell-based"}, "[4]": {"biological_target": "T1, Indoleamine 2,3-dioxygenase 1", "test": "Inhibition of indoleamine-2,3-dioxygenase in human HEK293 cells assessed as N-formylkynurenine level after 5 hrs by spectrophotometric analysis", "assay_type": "cell-based"}, "[5]": {"biological_target": "T1, Indoleamine 2,3-dioxygenase 1", "test": "Uncompetitive inhibition of human recombinant indoleamine-2,3-dioxygenase expressed in Escherichia coli BL21 using L-tryptophan as substrate by Dixon plot analysis"}, "[6]": {"biological_target": "T1, Indoleamine 2,3-dioxygenase 1", "test": "Ratio of IC50 for human recombinant indoleamine-2,3-dioxygenase expressed in Escherichia coli BL21 to IC50 for indoleamine-2,3-dioxygenase in human HEK293 cells"}, "T-cell [7]": {"tested_on": "T-cell", "test": "Ratio of 1-methyl tryptophan to compound for induction of BALB/c mouse LLC-stimulated T cell proliferation", "assay_type": "functional"}}, "note": "Calls of active or inactive are those of the source. No cut-off for these calls is given here.", "data": [{"smiles": "Brc1nn[nH]c1-c1ccccc1", "values": [{"measurement": "IC50", "setting": "[1]", "value": "Not Active"}]}, {"smiles": "Cc1ccc(-c2c[nH]nn2)cc1", "values": [{"measurement": "IC50", "setting": "[1]", "value": "Not Active"}]}, {"smiles": "On1nnc2ccccc21", "values": [{"measurement": "IC50", "setting": "[1]", "value": "Not Active"}]}, {"smiles": "O=[N+]([O-])c1ccc(-c2nn[nH]c2[N+](=O)[O-])cc1", "values": [{"measurement": "IC50", "setting": "[1]; read-out: IC50", "value": 533, "unit": "µM"}]}, {"smiles": "COc1ccccc1-c1c[nH]nn1", "values": [{"measurement": "IC50", "setting": "[1]; read-out: IC50", "value": 1030, "unit": "µM"}]}, {"smiles": "c1ccc(-c2cnn[nH]2)cc1", "values": [{"measurement": "inhibition", "setting": "[2]", "value": "Active"}, {"measurement": "Activity", "setting": "T-cell [3]", "value": "Dose-dependent effect"}]}, {"smiles": "Ic1nn[nH]c1-c1ccccc1", "values": [{"measurement": "IC50", "setting": "[1]; read-out: IC50", "value": 1370, "unit": "µM"}]}, {"smiles": "c1ccc2[nH]nnc2c1", "note": "[BENZOTRIAZOLE]", "values": [{"measurement": "IC50", "setting": "[1]; read-out: IC50", "value": 2570, "unit": "µM"}]}, {"smiles": "Brc1ccccc1-c1c[nH]nn1", "values": [{"measurement": "IC50", "setting": "[4]", "value": 31.6, "unit": "µM"}, {"measurement": "IC50", "setting": "[1]; read-out: IC50", "value": 148, "unit": "µM"}, {"measurement": "Ki", "setting": "[5]", "value": 18, "unit": "µM"}]}, {"smiles": "Clc1ccccc1-c1c[nH]nn1", "values": [{"measurement": "IC50", "setting": "[4]", "value": 19.3, "unit": "µM"}, {"measurement": "IC50", "setting": "[1]; read-out: IC50", "value": 86, "unit": "µM"}, {"measurement": "Ki", "setting": "[5]", "value": 14.5, "unit": "µM"}]}, {"smiles": "Brc1ccc(-c2nn[nH]n2)cc1", "values": [{"measurement": "IC50", "setting": "[1]", "value": "Not Active"}]}, {"smiles": "Clc1ccc(-c2c[nH]nn2)cc1", "values": [{"measurement": "IC50", "setting": "[1]; read-out: IC50", "value": 817, "unit": "µM"}]}, {"smiles": "Cc1ccc(-c2[nH]nnc2Br)cc1", "values": [{"measurement": "IC50", "setting": "[1]; read-out: IC50", "value": 1030, "unit": "µM"}]}, {"smiles": "COC(=O)c1ccc(-c2cnn[nH]2)cc1", "values": [{"measurement": "IC50", "setting": "[1]", "value": "Not Active"}]}, {"smiles": "Brc1ccccc1-c1cnn[nH]1", "values": [{"measurement": "Ratio IC50", "setting": "[6]", "value": 3}, {"measurement": "inhibition", "setting": "[2]", "value": "Active"}, {"measurement": "Activity", "setting": "T-cell [3]", "value": "Dose-dependent effect"}]}, {"smiles": "Brc1ccc(-c2c[nH]nn2)cc1", "values": [{"measurement": "IC50", "setting": "[1]; read-out: IC50", "value": 1260, "unit": "µM"}]}, {"smiles": "CCOC(=O)c1cn(-c2ccc(Cl)cc2)nn1", "values": [{"measurement": "IC50", "setting": "[1]; read-out: IC50", "value": 2000, "unit": "µM"}]}, {"smiles": "Fc1ccc(-c2c[nH]nn2)cc1", "values": [{"measurement": "IC50", "setting": "[1]; read-out: IC50", "value": 580, "unit": "µM"}]}, {"smiles": "c1cncc(-c2c[nH]nn2)c1", "values": [{"measurement": "IC50", "setting": "[1]; read-out: IC50", "value": 708, "unit": "µM"}]}, {"smiles": "Clc1nn[nH]c1-c1ccccc1", "values": [{"measurement": "IC50", "setting": "[1]", "value": "Not Active"}]}, {"smiles": "COc1ccc(-c2c[nH]nn2)cc1", "values": [{"measurement": "IC50", "setting": "[1]; read-out: IC50", "value": 6000, "unit": "µM"}]}, {"smiles": "Clc1ccccc1-c1cnn[nH]1", "values": [{"measurement": "Ratio IC50", "setting": "[6]", "value": 3}, {"measurement": "inhibition", "setting": "[2]", "value": "Active"}, {"measurement": "Ratio", "setting": "T-cell [7]", "value": 2}, {"measurement": "Activity", "setting": "T-cell [3]", "value": "Dose-dependent effect"}]}]}
